Measured values taken from US8349791B2, “Polypeptides that bind membrane proteins” (The Trustees of the University of Pennsylvania, priority 2006, dated 2013).
Peptide text beside a SMILES is read from it.

What was measured:
[1] = TOXCAT homodimerization in bacterial membranes; assay type: cell-based, Escherichia coli; details: ToxR fusion in E. coli
Procedure: Both the affinity and specificity of the membrane protein-binding peptides for their targets when coexpressed in bacterial membranes were assessed with a DN-“TOXCAT” assay (FIGS. 3a-3c). In TOXCAT, a TM sequence of interest is fused to a ToxR protein (TM-ToxR) that binds to the ctx promoter as a dimer, which induces expression of chloramphenicol acetyltransferase (CAT) (W. P. Russ, D. M. Engelman, Proc. Natl. Acad. Sci. U.S.A. 96, 863 (1999); D. Langosch, B. Brosig, H. Kolmar, H. J. Fritz, J. Mol. Biol. 263, 525 (1996)). In the DN assay, the TM1-ToxR fusion protein is coexpressed with a second fusion protein (TM2-ToxR*) containing a nonfunctional mutant of the ToxR domain. TM-driven dimerization leads to a ToxR-ToxR* dimer that is unable to bind the ctx promoter or to induce CAT synthesis (FIG. 3a). The resulting decrease in CAT activity can be used to monitor the formation of a heterodimeric TM complex. In principle, this assay could be accomplished by adding an exogenous synthetic peptide (D. Gerber, N. Sal-Man, Y. Shai, J. Mol. Biol. 339, 243 (2004)); however, it is difficult to assure that different peptides will be similarly inserted into the Escherichia coli inner membrane. […]

αv TM domain = target: T1, αv TM domain (Homo sapiens, UniProt P06756); assay: DN-TOXCAT heterodimerization; assay type: cell-based; details: coexpressed in bacterial membranes
T1 construct: expressed in transfected cells; host or cells: E. coli MM39, pDNToxR-Duet
Procedure: Both the affinity and specificity of the membrane protein-binding peptides for their targets when coexpressed in bacterial membranes were assessed with a DN-“TOXCAT” assay (FIGS. 3a-3c). In TOXCAT, a TM sequence of interest is fused to a ToxR protein (TM-ToxR) that binds to the ctx promoter as a dimer, which induces expression of chloramphenicol acetyltransferase (CAT) (W. P. Russ, D. M. Engelman, Proc. Natl. Acad. Sci. U.S.A. 96, 863 (1999); D. Langosch, B. Brosig, H. Kolmar, H. J. Fritz, J. Mol. Biol. 263, 525 (1996)). In the DN assay, the TM1-ToxR fusion protein is coexpressed with a second fusion protein (TM2-ToxR*) containing a nonfunctional mutant of the ToxR domain. TM-driven dimerization leads to a ToxR-ToxR* dimer that is unable to bind the ctx promoter or to induce CAT synthesis (FIG. 3a). The resulting decrease in CAT activity can be used to monitor the formation of a heterodimeric TM complex. In principle, this assay could be accomplished by adding an exogenous synthetic peptide (D. Gerber, N. Sal-Man, Y. Shai, J. Mol. Biol. 339, 243 (2004)); however, it is difficult to assure that different peptides will be similarly inserted into the Escherichia coli inner membrane.
For testing the specificity of the designed membrane protein-binding polypeptide sequences against the integrin TM domains, the designed sequences (anti-αIIb and anti-αV) were cloned into MCS1 of the Duet vector and the integrin TM domains into MCS2 of the Duet vector. In this configuration, the integrin TMs compete for the homodimers formed by the polypeptide sequences, with the decrease in CAT signal proportional to the extent of heterodimerization between a given integrin TM and polypeptide sequence relative to the homodimerization of the polypeptide sequence.
Single MM39 colonies containing pDNToxR-Duet constructs from selective plates were chosen, inoculated in 5 mL of LB medium containing 100 μg/mL ampicillin and grown to an OD600 of 0.2 at 37° C. with vigorous shaking. IPTG was added to the medium at a final concentration of 0.1 mM IPTG and grown to an OD600 of 0.7. Purification, immunoblotting, CAT ELISA and MalE complementation assays are essentially as described previously. Li, R., Gorelik, R., Nanda, V., Law, P. B., Lear, J. D., DeGrado, W. F. and Bennett, J. S. J. Biol. Chem. 2004, 279, 26666-26673 (2004). For immunoblotting, anti-MBP (NEB) was used for pccKAN (TOXCAT) constructs, whereas anti-myc (Covance) and anti-HA (Covance) were used for pDNToxR-Duet constructs. CAT ELISA results are an average of 3 independent replicates.

[2] = Trp fluorescence, phospholipid bilayer insertion; assay type: physicochemical; details: for insertion into phospholipid vesicles: FIG. 9
Procedure: Fluorescence intensity was measured on an ATF 105 spectrofluorometer (Aviv Biomedical, Inc., Lakewood, N.J.) using a 0.3 cm path length cuvette. Small unilamellar vesicles composed of 1-Palmitoyl-2-Oleoyl-sn-Glycero-3-Phosphocholine and 1-Palmitoyl-2-Oleoyl-sn-Glycero-3-[Phospho-rac-(1-glycerol)] (7:3) were prepared using standard ethanol dilution (Batzri S & Korn E D. Biochim. Biophys. Acta. 298, 1015-1019 (1973)): phospholipids were initially dissolved in 15 μl ethanol and then diluted to 1 ml with buffer (20 mM HEPES, pH=7.5). Samples with 1 μM anti-αIIb in the presence of 0, 100, and 500 μM total phospholipids were prepared. Excitation of 280 nm was used for emission scans ranging from 410 nm to 300 nm. Excitation and emission slit widths are 2.5 nm and 1.5 nm, respectively. An average time of 1.0 second was used.
See FIG. 9, which provides the emission scans of anti-αIIb (1 μM) and of anti-αV in the presence of three different concentrations of phospholipids. Provided are emission scans of 1 μM anti-αIIb (FIG. 9a) and 1 μM anti-αV (FIG. 9b) in presence of 0 μM (*), 100 μM (†), and 500 μM (^) of phospholipids (POPC:POPG=7:3, excitation wavelength=280 nm). The emission maximum of the Trp residue in anti-αIIb occurs at 353 nm, consistent with a fully-exposed Trp residue in the absence of membranes. In the presence of phospholipids vesicles, the emission maximum blue-shifts by 31 nm, indicating a transfer to a membrane-like environment.

αVβ3 = target: T2, αVβ3 (Homo sapiens, UniProt P06756); assay: Force spectroscopy (laser tweezers), platelets and osteopontin-coated beads; assay type: cell-based
T2 construct: Platelets express a second integrin with a β3 subunit, αVβ3; endogenous in cells; host or cells: gel-filtered human platelets
Excerpt: Litvinov R I et al. Proc. Natl. Acad. Sci. USA. 99, 7426-31 (2002). Recombinant human OPN, prepared as previously described (Bennett J S et al. J. Biol. Chem. 272, 8137-40 (1997)) or purified human fibrinogen was covalently bound to 0.93 μm carboxylate-modified latex beads. Individual cells, trapped from a suspension of gel filtered human platelets or CHO cells, were manually attached to 5 μm diameter silica pedestals coated with polylysine. An OPN- or fibrinogen-coated bead, trapped by the laser light, was then brought into proximity of an immobilized cell, oscillated at 50 Hz, and then brought into repeated intermittent contact with the cell by micromanipulation. Data collection was initiated at the first contact between the bead and the cell. Rupture forces following repeated contacts were collected for periods of several seconds to one minute. Individual forces measured during each contact-detachment cycle were collected into 10 pN-wide bins. The number of events in each bin was then plotted against the average force for that bin after normalizing for the total number of interaction cycles. Thus, the percentage of events in a particular force range (bin) represents the probability of rupture events at that tension. Optical artifacts observed with or without trapped latex beads produce signals that appeared as forces below 10 pN. Therefore, rupture forces in this range were not considered when the data were analyzed. The polypeptide was added from a DMSO solution such that the final concentration of DMSO was no greater than 0.5%. All controls also had 0.5% DMSO in the buffer.
Platelets express a second integrin with a β3 subunit, αVβ3, which can bind the matrix protein osteopontin when platelets are stimulated by Mn^2+ or ADP. Bennett J S et al. J. Biol. Chem. 272, 8137-8140 (1997). To test the ability of anti-αIIb to discriminate between αIIbβ3 and αVβ3, the rupture force between platelets and osteopontin-coated beads in the presence and absence of anti-αIIb was measured.

T2 sequence (P06756 891-1048 limits assumed): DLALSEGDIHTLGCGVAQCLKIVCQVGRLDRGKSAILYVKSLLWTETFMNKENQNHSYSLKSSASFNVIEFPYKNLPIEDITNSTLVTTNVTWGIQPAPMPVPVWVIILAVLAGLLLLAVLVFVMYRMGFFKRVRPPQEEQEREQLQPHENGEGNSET
T2 sequence (P06756 31-889 partner limits assumed): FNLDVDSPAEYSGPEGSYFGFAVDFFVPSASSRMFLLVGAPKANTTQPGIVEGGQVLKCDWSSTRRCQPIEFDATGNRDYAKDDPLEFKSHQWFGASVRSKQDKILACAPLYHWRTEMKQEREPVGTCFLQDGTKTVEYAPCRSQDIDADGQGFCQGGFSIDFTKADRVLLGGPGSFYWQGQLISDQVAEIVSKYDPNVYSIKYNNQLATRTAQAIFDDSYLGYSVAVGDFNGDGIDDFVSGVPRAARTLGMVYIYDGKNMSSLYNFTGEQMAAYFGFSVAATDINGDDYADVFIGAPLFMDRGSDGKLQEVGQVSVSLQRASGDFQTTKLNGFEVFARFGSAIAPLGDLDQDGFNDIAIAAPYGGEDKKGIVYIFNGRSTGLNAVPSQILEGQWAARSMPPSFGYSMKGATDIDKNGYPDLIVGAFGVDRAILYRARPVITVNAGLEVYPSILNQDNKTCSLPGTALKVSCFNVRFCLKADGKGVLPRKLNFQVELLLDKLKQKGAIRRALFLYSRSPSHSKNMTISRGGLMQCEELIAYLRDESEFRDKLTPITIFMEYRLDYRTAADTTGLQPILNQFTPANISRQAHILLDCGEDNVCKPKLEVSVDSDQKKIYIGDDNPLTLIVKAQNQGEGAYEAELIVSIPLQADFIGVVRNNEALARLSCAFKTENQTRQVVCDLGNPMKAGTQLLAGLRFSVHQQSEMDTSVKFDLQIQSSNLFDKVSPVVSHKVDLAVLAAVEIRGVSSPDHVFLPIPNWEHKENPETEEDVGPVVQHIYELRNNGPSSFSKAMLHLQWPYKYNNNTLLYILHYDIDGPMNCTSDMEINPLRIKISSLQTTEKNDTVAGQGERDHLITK
T2 sequence (P05106 27-788 partner): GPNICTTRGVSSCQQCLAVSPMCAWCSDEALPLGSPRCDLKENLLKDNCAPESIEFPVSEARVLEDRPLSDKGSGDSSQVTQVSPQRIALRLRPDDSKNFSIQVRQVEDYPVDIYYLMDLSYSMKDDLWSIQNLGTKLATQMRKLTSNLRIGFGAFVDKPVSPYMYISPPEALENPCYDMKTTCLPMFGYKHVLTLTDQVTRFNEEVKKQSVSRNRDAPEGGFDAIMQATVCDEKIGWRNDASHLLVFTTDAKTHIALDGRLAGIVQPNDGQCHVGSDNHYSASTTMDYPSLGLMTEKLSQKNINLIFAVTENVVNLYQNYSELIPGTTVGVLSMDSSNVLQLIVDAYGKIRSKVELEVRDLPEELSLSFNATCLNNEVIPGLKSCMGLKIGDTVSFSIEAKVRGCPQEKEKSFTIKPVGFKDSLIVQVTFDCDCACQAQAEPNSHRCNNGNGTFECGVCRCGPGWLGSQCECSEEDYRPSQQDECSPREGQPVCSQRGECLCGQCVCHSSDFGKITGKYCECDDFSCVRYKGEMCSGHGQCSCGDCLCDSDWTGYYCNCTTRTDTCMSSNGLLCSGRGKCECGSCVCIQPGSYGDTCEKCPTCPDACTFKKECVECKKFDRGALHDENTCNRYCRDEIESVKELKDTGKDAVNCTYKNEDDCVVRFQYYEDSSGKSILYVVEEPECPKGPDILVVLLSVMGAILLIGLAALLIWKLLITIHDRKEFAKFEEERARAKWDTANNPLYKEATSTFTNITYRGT
T1 sequence (P06756 with tags, fused parts or gaps limits assumed): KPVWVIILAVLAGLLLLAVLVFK

Compound	homodimer formation in bacterial membranes (CAT signal, words) [1]	interaction with αv TM domain (αv TM domain)	blue-shift of Trp emission maximum in the presence of phospholipid vesicles ([2]; 1 μM peptide, POPC:POPG 7:3 vesicles) [nm]	emission maximum of the Trp residue in the absence of membranes ([2]; 1 μM peptide, excitation 280 nm, 0 μM phospholipids) [nm]	insertion into phospholipid vesicles [2]	rupture force, platelets and osteopontin-coated beads (αVβ3; 0.5 μM polypeptide)	peak of rupture force between platelets and osteopontin-coated beads (αVβ3) [pN]	rupture force peak in the presence of αvβ3 antagonist XJ735 (αVβ3)
CC[C@H](C)[C@H](NC(=O)[C@H](Cc1ccccc1)NC(=O)[C@H](Cc1ccccc1)NC(=O)[C@@H]1CCCN1C(=O)[C@H](CC(C)C)NC(=O)[C@H](CC(C)C)NC(=O)[C@H](CCSC)NC(=O)[C@@H](NC(=O)[C@H](Cc1ccc(O)cc1)NC(=O)[C@H](C)NC(=O)[C@H](CCCCN)NC(=O)[C@@H](N)CCCCN)C(C)C)C(=O)NCC(=O)N[C@@H](CC(C)C)C(=O)N[C@@H](CC(C)C)C(=O)N[C@@H](CC(C)C)C(=O)NCC(=O)N[C@@H](CC(C)C)C(=O)N[C@H](C(=O)N[C@@H](Cc1ccccc1)C(=O)NCC(=O)NCC(=O)N[C@@H](C)C(=O)N[C@@H](Cc1ccccc1)C(=O)N[C@@H](Cc1c[nH]c2ccccc12)C(=O)NCC(=O)N1CCC[C@H]1C(=O)N[C@@H](C)C(=O)N[C@@H](CCCNC(=N)N)C(=O)N[C@@H](Cc1c[nH]cn1)C(=O)N[C@@H](CC(C)C)C(=O)N[C@@H](CCCCN)C(=O)N[C@@H](CCCCN)C(N)=O)[C@@H](C)CC [anti-αIIb] (H-KKAYVMLLPFFIGLLLGLIFGGAFWGPARHLKK-NH2; N-terminus assumed)	affinity similar to that of the TM domain of glycophorin A (GpA)	failed to significantly interact	31	353	successfully insert	No peak of rupture force was observed		
AYVFILLSFILGTLLGFLVMFWA [anti-αV]	affinity similar to that of the TM domain of glycophorin A (GpA)	much greater affinity than the α2, αIIb, β1, or β3 domains			successfully insert		40	not present
